Experimental data as given in article PMC12557365 (Journal of Medicinal Chemistry, 2025).
Where two headings read alike, the source gives them in different places.

What was measured:
SARS-CoV-2 3CL^pro = SARS-CoV-2 3CL^pro (Severe acute respiratory syndrome coronavirus 2, UniProt P0DTD1); assay: biochemical; type: biochemical
[1] = test system: SARS-CoV-2 hCoV-19/Japan/TY/WK-521 strain; assay: microbe, parasite or virus in culture; type: cell-based; conditions: Severe acute respiratory syndrome coronavirus 2, HEK-293T, read-out: HEK 293T-AT EC50
in vitro [2] = conditions: both, human, microsomes
in vitro [3] = conditions: male, rat, microsomes
in vivo [4] = conditions: male, Sprague-Dawley, rat
in vivo [5] = conditions: male, beagle, dog, iv, 0.1 mg/kg
in vivo [6] = conditions: female, cynomolgus monkey, iv, 0.1 mg/kg
in vitro [7] = conditions: pig, LLC-PK1
SARS-CoV-2 = assay: microbe, parasite or virus in culture; type: cell-based; conditions: Severe acute respiratory syndrome coronavirus 2, A549
[8] = test system: SARS-CoV-2 Omicron strains; assay: microbe, parasite or virus in culture; type: cell-based; conditions: Severe acute respiratory syndrome coronavirus 2, Epithelial cell
HCoV-OC43 = assay: microbe, parasite or virus in culture; type: cell-based; conditions: Betacoronavirus 1, OC43, MRC5, read-out: EC50 HCoV-OC43
HCoV-229E = assay: microbe, parasite or virus in culture; type: cell-based; conditions: Human coronavirus 229E, MRC5, read-out: EC50 HCoV-229E
P-gp [9] = molecular target: T1, P-gp (Homo sapiens, UniProt P08183); conditions: LLC-PK1
P-gp [10] = molecular target: T1, P-gp; assay: in vitro; conditions: LLC-PK1
[11] = read-out: SARS-CoV-2 3CL^pro IC50

T1 sequence (P08183 whole entry): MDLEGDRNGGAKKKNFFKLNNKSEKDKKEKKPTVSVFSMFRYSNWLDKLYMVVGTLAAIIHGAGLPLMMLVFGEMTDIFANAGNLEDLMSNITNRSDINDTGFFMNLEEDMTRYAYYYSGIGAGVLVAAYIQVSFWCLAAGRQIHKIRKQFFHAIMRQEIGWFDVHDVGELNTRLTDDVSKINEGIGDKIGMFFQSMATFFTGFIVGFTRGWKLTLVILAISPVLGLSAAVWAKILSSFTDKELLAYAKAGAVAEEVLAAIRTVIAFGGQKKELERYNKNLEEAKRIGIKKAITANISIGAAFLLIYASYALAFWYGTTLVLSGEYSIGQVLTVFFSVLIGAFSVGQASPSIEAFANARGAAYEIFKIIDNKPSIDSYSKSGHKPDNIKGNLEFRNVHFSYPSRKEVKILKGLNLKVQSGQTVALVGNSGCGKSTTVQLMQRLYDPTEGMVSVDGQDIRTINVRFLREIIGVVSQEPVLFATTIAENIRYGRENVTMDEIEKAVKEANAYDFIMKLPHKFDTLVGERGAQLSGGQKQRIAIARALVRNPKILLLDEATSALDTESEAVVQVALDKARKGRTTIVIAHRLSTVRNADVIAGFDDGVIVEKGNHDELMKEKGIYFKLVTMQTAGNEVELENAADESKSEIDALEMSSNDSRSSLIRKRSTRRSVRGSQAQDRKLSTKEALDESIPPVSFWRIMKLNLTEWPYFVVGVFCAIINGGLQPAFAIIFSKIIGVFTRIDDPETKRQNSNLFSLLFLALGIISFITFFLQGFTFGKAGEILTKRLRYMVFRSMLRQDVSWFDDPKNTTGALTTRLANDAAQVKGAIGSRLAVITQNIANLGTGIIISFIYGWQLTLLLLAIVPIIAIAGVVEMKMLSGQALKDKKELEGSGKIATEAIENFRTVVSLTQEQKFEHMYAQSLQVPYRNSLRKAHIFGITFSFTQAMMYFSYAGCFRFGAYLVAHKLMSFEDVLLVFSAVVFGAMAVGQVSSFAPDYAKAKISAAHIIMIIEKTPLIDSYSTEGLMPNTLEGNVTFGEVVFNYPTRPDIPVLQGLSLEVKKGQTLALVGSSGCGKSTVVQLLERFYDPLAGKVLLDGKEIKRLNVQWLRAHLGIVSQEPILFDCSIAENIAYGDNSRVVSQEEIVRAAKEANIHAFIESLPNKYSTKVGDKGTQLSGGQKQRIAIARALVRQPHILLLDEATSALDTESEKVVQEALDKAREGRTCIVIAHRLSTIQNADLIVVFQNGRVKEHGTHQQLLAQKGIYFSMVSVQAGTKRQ

SMILES	IC50 (SARS-CoV-2 3CL^pro) [nM]	EC50 [1] [nM]	remaining at 0.5 h (in vitro [2]) [%]	remaining at 0.5 h (in vitro [3]) [%]	also measured
Cc1cncc(-n2c(=O)nc(N3Cc4ccccc4C3)n(Cc3cc(F)c(F)c(F)c3)c2=O)c1 [Compound 1, 6-(Isoindolin-2-yl)-3-(5-methylpyridin-3-yl)-1-(3,4,5-trifluorobenzyl)-1,3,5-triazine-2,4(1H,3H)-dione]	143	264	49	19	
Cc1cncc(-n2c(=O)[nH]c(N3Cc4ccccc4C3)c(Cc3cc(F)c(F)c(F)c3)c2=O)c1 [Compound 2, 6-(Isoindolin-2-yl)-3-(5-methylpyridin-3-yl)-5-(3,4,5-trifluorobenzyl)-pyrimidine-2,4(1H,3H)-dione]	335	1490	45	36	
Cc1cncc(-n2c(=O)c(Cc3cc(F)c(F)c(F)c3)c(N3Cc4ccccc4C3)n(C)c2=O)c1 [Compound 3, 6-(Isoindolin-2-yl)-1-methyl-3-(5-methylpyridin-3-yl)-5-(3,4,5-trifluorobenzyl)-pyrimidine-2,4(1H,3H)-dione]	179	191	1	1	
Cc1cncc(-n2c(=O)c(Cc3cc(F)c(F)c(F)c3)c(N3Cc4ccccc4C3)n(CC#N)c2=O)c1 [Compound 4, 2-(6-(Isoindolin-2-yl)-3-(5-methylpyridin-3-yl)-2,4-dioxo-5-(3,4,5-trifluorobenzyl)-3,4-dihydropyrimidin-1(2H)-yl)-acetonitrile]		4.94	1	3	IC50 (SARS-CoV-2 3CL^pro; [11]): 0.76 nM
Cc1cncc(-n2c(=O)c(Cc3cc(F)c(F)c(F)c3)c(N3CCCC3)n(CC#N)c2=O)c1 [Compound 5, 2-(3-(5-Methylpyridin-3-yl)-2,4-dioxo-6-(pyrrolidin-1-yl)-5-(3,4,5-trifluorobenzyl)-3,4-dihydropyrimidin-1(2H)-yl)-acetonitrile]	11.8	20.4	4	11	
Cc1cncc(-n2c(=O)c(Cc3cc(F)c(F)c(F)c3)c(N3CCC(C(F)(F)F)CC3)n(CC#N)c2=O)c1 [Compound 6, 2-(3-(5-Methylpyridin-3-yl)-2,4-dioxo-5-(3,4,5-trifluorobenzyl)-6-(4-(trifluoromethyl)-piperidin-1-yl)-3,4-dihydropyrimidin-1(2H)-yl)-acetonitrile]	1.51	9.41	13	18	
Cc1cncc(-n2c(=O)c(Cc3cc(F)c(F)c(F)c3)c(N3CC4(CCOCC4)C3)n(CC#N)c2=O)c1 [Compound 7, 2-(3-(5-Methylpyridin-3-yl)-2,4-dioxo-6-(7-oxa-2-azaspiro[3.5]-nonan-2-yl)-5-(3,4,5-trifluorobenzyl)-3,4-dihydropyrimidin-1(2H)-yl)-acetonitrile]	14	41.9	58	77	
Cc1cncc(-n2c(=O)c(Cc3cc(F)c(F)c(F)c3)c(N3CC4(C3)CC(F)(F)C4)n(CC#N)c2=O)c1 [Compound 8, 2-(6-(6,6-Difluoro-2-azaspiro[3.3]-heptan-2-yl)-3-(5-methylpyridin-3-yl)-2,4-dioxo-5-(3,4,5-trifluorobenzyl)-3,4-dihydropyrimidin-1(2H)-yl)-acetonitrile]	5.63	14.4	36	62	
Cc1cncc(-n2c(=O)c(Cc3cc(F)c(F)c(F)c3)c(N3CC4(CCOC4)C3)n(CC#N)c2=O)c1 [Compound 9, 2-(3-(5-Methylpyridin-3-yl)-2,4-dioxo-6-(6-oxa-2-azaspiro[3.4]-octan-2-yl)-5-(3,4,5-trifluorobenzyl)-3,4-dihydropyrimidin-1(2H)-yl)-acetonitrile]	8.37	18.4	58	81	
N#CCn1c(N2CC3(CCOC3)C2)c(Cc2cc(F)c(F)c(F)c2)c(=O)n(-c2cncc(Cl)c2)c1=O [Compound 10, 2-(3-(5-Chloropyridin-3-yl)-2,4-dioxo-6-(6-oxa-2-azaspiro[3.4]-octan-2-yl)-5-(3,4,5-trifluorobenzyl)-3,4-dihydropyrimidin-1(2H)-yl)-acetonitrile]	8.27	25.3	17	54	
Cc1cncc(-n2c(=O)c(Cc3ccc(F)c(F)c3)c(N3CC4(CCOC4)C3)n(CC#N)c2=O)c1 [Compound 11, 2-(5-(3,4-Difluorobenzyl)-3-(5-methylpyridin-3-yl)-2,4-dioxo-6-(6-oxa-2-azaspiro[3.4]-octan-2-yl)-3,4-dihydropyrimidin-1(2H)-yl)-acetonitrile]	19.6	41.8	55	71	
Cc1cncc(-n2c(=O)c(Cc3ccccc3)c(N3CC4(CCOC4)C3)n(CC#N)c2=O)c1 [Compound 12, 2-(5-Benzyl-3-(5-methylpyridin-3-yl)-2,4-dioxo-6-(6-oxa-2-azaspiro[3.4]-octan-2-yl)-3,4-dihydropyrimidin-1(2H)-yl)-acetonitrile]	99.6	117	70	70	
N#CCn1c(N2CC3(CCOC3)C2)c(-c2ccccc2)c(=O)n(-c2cncc(Cl)c2)c1=O [Compound 13, 2-(3-(5-Chloropyridin-3-yl)-2,4-dioxo-5-phenyl-6-(6-oxa-2-azaspiro[3.4]-octan-2-yl)-3,4-dihydropyrimidin-1(2H)-yl)-acetonitrile]	7.16	23.1	55	58	
N#CCn1c(N2CC3(CCOC3)C2)c(-c2cccc(Cl)c2)c(=O)n(-c2cncc(Cl)c2)c1=O [Compound 14, 2-(5-(3-Chlorophenyl)-3-(5-chloropyridin-3-yl)-2,4-dioxo-6-(6-oxa-2-azaspiro[3.4]-octan-2-yl)-3,4-dihydropyrimidin-1(2H)-yl)-acetonitrile]		1.57	49	33	improvement of activity by substituents on the S2 phenyl group (SARS-CoV-2 3CL^pro): more than 10 -fold; IC50 (SARS-CoV-2 3CL^pro; [11]): 0.403 nM
N#CCn1c(N2CC3(CCOC3)C2)c(-c2ccc(F)c(Cl)c2)c(=O)n(-c2cncc(Cl)c2)c1=O [Compound 15, 2-(5-(3-Chloro-4-fluorophenyl)-3-(5-chloropyridin-3-yl)-2,4-dioxo-6-(6-oxa-2-azaspiro[3.4]-octan-2-yl)-3,4-dihydropyrimidin-1(2H)-yl)-acetonitrile]	0.493	4.48	55	58	improvement of activity by substituents on the S2 phenyl group (SARS-CoV-2 3CL^pro): more than 10 -fold
N#CCn1c(N2CC(F)(F)C2)c(-c2ccc(F)c(Cl)c2)c(=O)n(-c2cncc(Cl)c2)c1=O [Compound 16, 2-(5-(3-Chloro-4-fluorophenyl)-3-(5-chloropyridin-3-yl)-6-(3,3-difluoroazetidin-1-yl)-2,4-dioxo-3,4-dihydropyrimidin-1(2H)-yl)-acetonitrile]	2.36	7.79	89	83	
N#CCn1c(N2CC(O)(C(F)(F)F)C2)c(-c2ccc(F)c(Cl)c2)c(=O)n(-c2cncc(Cl)c2)c1=O [Compound 18, 2-(5-(3-Chloro-4-fluorophenyl)-3-(5-chloropyridin-3-yl)-6-(3-hydroxy-3-(trifluoromethyl)-azetidin-1-yl)-2,4-dioxo-3,4-dihydropyrimidin-1(2H)-yl)-acetonitrile]	0.391	3.82	103	99	clearance (in vivo [4]; iv): 6.69 mL/min/kg; half-life (in vivo [4]; iv): 6.89 h; bioavailability (in vivo [4]; po, 1 umol/kg): 38%; clearance (in vivo [5]): 4.59 mL/min/kg; half-life (in vivo [5]): 8.74 h; clearance (in vivo [6]): 19.7 mL/min/kg; half-life (in vivo [6]): 3.48 h; Papp A→B (in vitro [7]): 1.26 ×10⁻⁶ cm/s
CC(C)(C)[C@H](NC(=O)C(F)(F)F)C(=O)N1C[C@H]2[C@@H]([C@H]1C(=O)N[C@H](C#N)C[C@@H]1CCNC1=O)C2(C)C [nirmatrelvir, reference compound]					EC50 (SARS-CoV-2): 47.5 ± 12.3 nM; EC90 [8]: 45.1 ± 21.2 nM; EC50 (HCoV-OC43): 58.8 ± 12.2 nM; EC50 (HCoV-229E): 696 ± 210 nM; P-gp substrate assessment (P-gp [9]): P-gp substrates; Papp A→B (in vitro [7]): 0.615 ×10⁻⁶ cm/s; Papp B→A (in vitro [7]): 1.42 ×10⁻⁶ cm/s; Papp A→B (P-gp [10]): 0.908 ×10⁻⁶ cm/s; Papp B→A (P-gp [10]): 9.39 ×10⁻⁶ cm/s
